According to PMC7725824, “Fused isoselenazolium salts suppress breast cancer cell growth by dramatic increase in pyruvate-dependent mitochondrial ROS production” (Scientific Reports, 2020):

Columns and labels:
[1] = Cytotoxicity assay (MTT), 3T3; assay type: cell-based, mouse; conditions: mouse, NIH 3T3 cells (fibroblasts), normal cell line, mean ± S.D., 3 experiments
Method: (§1) MCF-7 (human breast adenocarcinoma, estrogen-positive) and 4T1 (mouse carcinoma), as breast cancer cell lines, and H9C2 (rat cardiomyoblasts), NIH 3T3 (mouse fibroblasts), HEKa (primary human epidermal keratinocytes), MDCK (Madin-Darby Canine Kidney) cells, and A7r5 (rat vascular smooth muscle cells), as normal cell lines, were obtained from the American Type Culture Collection [ATCC] collection for use in the current study. All cell lines were cultured in Dulbecco's modified Eagle's medium (DMEM) containing 10% fetal bovine serum (FBS) and 4 mM L-glutamine at 37 °C and 5% CO2.
(§2) Cell viability was assessed by the addition of 3-(4,5-dimethylthiazol-2-yl)-2,5-diphenyltetrazolinium bromide (MTT). Briefly, cells were seeded (2–6 × 10^4 cells/ml) in 96-well plates and allowed to attach for 24 h. Solutions of test compounds were prepared and serially diluted to obtain the appropriate concentrations. The cells were treated with the test compounds at different concentrations (0.032–100 µM) and incubated for 48 h at 37 °C and 5% CO2. Then, the culture medium was removed, and medium containing 0.2 mg/ml MTT was added. After 3 h (37 °C, 5% CO2), the MTT-containing medium was removed, and 200 μl of dimethyl sulfoxide (DMSO) was immediately added to each sample. The absorbance was assessed at 540 nm using a Tecan multiplate reader Infinite 1000 (Austria). The half-maximal inhibitory concentration (IC50) of each compound was calculated using Graph Pad Prism 3.0.

[2] = tested on: MCF-7; experiment: Cytotoxicity assay (MTT), MCF-7; assay type: cell-based, human; conditions: Homo sapiens, MCF7; breast cancer cell line; MTT, 48 h; mean ± S.D., 3 experiments; read-out: Cytotoxicity, IC50, MCF-7
Method: as §1, §2

[3] = Cytotoxicity assay (MTT), H9C2; assay type: cell-based, rat; conditions: rat, H9C2 cells (cardiomyoblasts); normal cell line; MTT, 48 h; mean ± S.D., 3 experiments
Method: as §1, §2

[4] = Cytotoxicity assay (MTT), HEKa; assay type: cell-based, human; conditions: human, HEKa cells (primary epidermal keratinocytes), normal cell line, mean ± S.D., 3 experiments
Method: as §1, §2

[5] = Cytotoxicity assay (MTT), A7r5; assay type: cell-based, rat; conditions: rat, A7r5 cells (vascular smooth muscle cells), normal cell line, mean ± S.D., 3 experiments
Method: as §1, §2

[6] = tested on: MCF-7 cells; experiment: NAD+/NADH assay kit measurement; assay type: cell-based, human; conditions: 2 μM, 10 min, vs control
Method: The NAD^+/NADH ratio in the MCF-7 cells exposed to the test compounds (2 μM) for 10 min was measured using an NAD^+/NADH assay kit (Abcam, ab65348) according to the manufacturer's instructions.

[7] = tested on: DOPC liposomes; experiment: 1H NMR interaction study with DOPC liposomes; assay type: binding; conditions: 0.4 mM 6, 1.6 mM DOPC, 25 °C
Method: Cardiolipin (CL) liposomes for NMR analysis were prepared by the thin-film method followed by sonication and extrusion. […] The obtained lipid thin film was dried in vacuo overnight. Then, the dry lipid film was rehydrated in D18 HEPES buffer (20 mM, pH 7.4, 10% D2O) and gently vortexed, and the samples were sonicated for 30 min in a bath-type sonicator. The obtained sample of liposomes was extruded 21 times through a 100-nm pore polycarbonate filter (Nucleopore Corp., CA). Similarly, liposomes from DOPC only were prepared.
To study the interactions of compound 6 with CL and DOPC liposomes, a stock solution of 6 (2 mM) in D18 HEPES buffer (20 mM, pH 7.4, 10% D2O) was added to CL/DOPC or DOPC liposome dispersions to reach 400:1200:400 µM CL/DOPC/6 solution or 1600:400 µM DOPC/6 solution followed by gentle vortexing for 30 s.
NMR spectra were acquired on a 600‐MHz Bruker Avance NEO spectrometer equipped with a 5 mm QCI-F quadruple resonance pulsed‐field‐gradient cryoprobe. The temperature was calibrated against methanol and set to 25 °C. Chemical shifts were referenced to the water resonance at 4.77 ppm with respect to 4,4-dimethyl-4-silapentane-1-sulfonic acid (DSS). The samples contained […] 6 in 90% H2O and 10% D2O with and without DOPC or CL/DOPC liposomes. The NMR data were processed and analyzed using MestReNova software.

[8] = tested on: permeabilized 4T1 cells; experiment: High-resolution fluorespirometry (respiration and H2O2 flux); assay type: cell-based, mouse
Method: High-resolution fluorespirometry was performed using an Oxygraph-2 k system (OROBOROS INSTRUMENTS, Austria). All experiments were performed at 37 °C in MiR05 medium (110 mM sucrose, 60 mM K-lactobionate, 0.5 mM EGTA, 3 mM MgCl2, 20 mM taurine, 10 mM KH2PO4, 20 mM HEPES, pH 7.1 at 30 °C, and 0.1% BSA essentially fatty acid free). The medium was reoxygenated when the oxygen concentration dropped to 80 µM. H2O2 flux was simultaneously measured with respirometry in the O2k-Fluorometer using the H2O2-sensitive probe Ampliflu Red (AmR) as described. The H2O2/O flux ratio [%] was calculated as the H2O2 flux/(0.5 O2 flux).
In permeabilized 4T1 cells, pyruvate + malate (5 and 2 mM) or glutamate + malate (10 and 2 mM) were used to determine complex I (CI)-linked LEAK (L) respiration. ADP was added to a concentration of 5 mM to determine the oxidative phosphorylation-dependent respiration (OXPHOS state). Succinate (10 mM, complex II (CII) substrate) was then added to reconstitute convergent CI&II-linked respiration. Rotenone (0.5 µM, an inhibitor of complex I) and antimycin A (2.5 µM, an inhibitor of complex III) were added to determine the CII-linked OXPHOS capacity and residual oxygen consumption (ROX), respectively. Compound 6 was added to permeabilized cells after the addition of the respective substrates in the OXPHOS state (titration experiment) or in the LEAK state. In addition, compounds 3, 6 and 7 were tested at 1 µM in the OXPHOS coupling protocol in the LEAK state. The OXPHOS coupling efficiency was calculated as: 1-Resp.rateLEAKstate/Resp.rateOXPHOSstate
The substrate-dependent flux control factor was calculated as: 1-Resp.ratebeforeadditionofrespectivesubstrate/Resp.rateafteradditionofrespectivesubstrate

[9] = 1 µM, pyruvate-dependent OXPHOS state
[10] = titration, pyruvate + malate and glutamate + malate, OXPHOS

OC1(c2[se][n+]3ccsc3c2Br)CCCCC1 [Compound 6, 3-bromo-2-(1-hydroxycyclohexyl)[1,2]selenazolo[2,3-b]thiazolium chloride]
IC50 at 48 h [1]: 7.4 ± 0.8 µM | IC50 [2]: 3.23 ± 0.03 µM | IC50 at 48 h [3]: 3.7 ± 0.2 µM | IC50 at 48 h [4]: 2.84 ± 0.08 µM | IC50 at 48 h [5]: 1.97 ± 0.27 µM | decrease in NAD+ level [6]: 25% | decrease in NAD+/NADH ratio [6]: without affecting | decrease in NADH level [6]: without affecting | aromatic 1H NMR resonances in the presence of DOPC liposomes [7]: noticeably broadened | H2O2 production and H2O2/O ratio in the CI&II-linked OXPHOS state ([8]; 1 µM): significant increases | OXPHOS coupling efficiency ([8]; 1 µM): significant decrease | respiration rate in the OXPHOS state with pyruvate and malate ([8]; 1 µM): decreased | increase in H2O2/O ratio [8, 9]: 2.8 fold | increase in H2O2 production [8, 9]: 2.3 fold | mitochondrial function in the CII-linked OXPHOS state ([8]; titration): no significant changes | H2O2 production with complex I (NADH-linked) substrates [8, 10]: increased | mitochondrial respiration rate with complex I (NADH-linked) substrates [8, 10]: inhibited
